From PubChem BioAssay (NCI)
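Exposure lasted 48 hours, with cells grown in 96-well plates and compounds tested at five concentrations. TGI: total growth inhibition.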

What was measured:
Test in all cases: NCI-60 cell line screen, 48 h
BT-549 breast = test system: BT-549 breast
COLO 205 colon = test system: COLO 205 colon
DU-145 prostate = test system: DU-145 prostate
K-562 leukemia = test system: K-562 leukemia
MDA-N = test system: MDA-N
NCI-H226 lung = test system: NCI-H226 lung
NCI-H460 lung = test system: NCI-H460 lung
OVCAR-8 ovarian = test system: OVCAR-8 ovarian
SN12C renal = test system: SN12C renal
UO-31 renal = test system: UO-31 renal
HL-60(TB) leukemia = test system: HL-60(TB) leukemia

| Structure (SMILES) | TGI (BT-549 breast) [µM] | TGI (COLO 205 colon) [µM] | TGI (DU-145 prostate) [µM] | TGI (K-562 leukemia) [µM] | TGI (MDA-N) [µM] | TGI (NCI-H226 lung) [µM] | TGI (NCI-H460 lung) [µM] | TGI (OVCAR-8 ovarian) [µM] | TGI (SN12C renal) [µM] | TGI (UO-31 renal) [µM] | TGI (HL-60(TB) leukemia) [µM] |
| --- | --- | --- | --- | --- | --- | --- | --- | --- | --- | --- | --- |
| CC(=O)O[C@H]1CC[C@@]2(C)C(=CC[C@@H]3[C@@H]2CC[C@]2(C)C(=O)/C(=C\c4ccccc4)C[C@@H]32)C1 | > 100 | > 100 | > 100 | > 100 | > 100 | > 100 | > 100 | > 100 | > 100 | > 100 |  |
| Cc1[nH]n(C(=O)Cc2ccccc2)c(=O)c1/C=C1\C(=O)C=Cc2ccccc21 |  | > 100 |  | > 100 |  | > 100 | > 100 | > 100 | > 100 | 79.9 | > 100 |
| CCOC(=O)c1nc2ccccc2nc1Oc1ccc(F)cc1 | > 100 | > 100 | > 100 | > 100 | > 100 | > 100 | > 100 | > 100 | > 100 | > 100 |  |
| Cn1c2ccccc2n2c3ccccc3c3nnc(N)c-3c12 | 13.8 | > 100 | > 100 | > 100 |  | > 100 | > 100 | > 100 | 10 | > 100 | > 100 |
| N#Cc1nc(CCC(C(=O)O)N2C(=O)c3ccccc3C2=O)oc1N (stereo unspecified) |  | > 100 | > 100 | > 100 | > 100 | > 100 | > 100 | > 100 | > 100 | > 100 | > 100 |
| CC1=C(C(N)=O)C(c2ccncc2)C(C#N)C(=O)N1 (stereo unspecified) |  | > 100 | > 100 | > 100 |  |  | > 100 |  |  | > 100 | > 100 |
| CCCCc1c2c([n+]([O-])c3c1CCCC3)CCCC2 |  | > 100 |  | > 100 |  | > 100 | > 100 | > 100 | > 100 | > 100 | > 100 |
| N#CC(NNC(=O)c1ccccc1O)c1ccccc1O (stereo unspecified) |  | > 100 |  | > 100 |  | 25.1 | > 100 | > 100 | > 100 | 48.4 | > 100 |
| C/C(=N\NC(N)=O)C(CN1CCOCC1)C(c1ccccc1)c1c(O)c2ccccc2oc1=O (stereo unspecified) | > 100 | > 100 | > 100 | > 100 | > 100 | > 100 |  | > 100 |  | > 100 | > 100 |
| C[C@H]1CC(=O)C[C@@H]2CC[C@@H]3[C@H](CC[C@]4(C)C(OC(=O)c5cccc6c(=O)c7ccccc7[nH]c56)CC[C@@H]34)[C@]21C (stereo partly specified) | > 100 | 62.9 | > 100 | > 100 |  | > 100 | > 100 | 75.9 | > 100 | 95.1 | 36.5 |
| NC(Cc1c2ccccc2cc2ccccc12)C(=O)O (stereo unspecified) |  | > 100 | > 100 | > 100 |  | > 100 | > 100 | > 100 | > 100 | > 100 | > 100 |
| CCOC(=O)c1cn2c(n1)sc1cc([N+](=O)[O-])ccc12 | > 100 | > 100 | > 100 | > 100 |  | > 100 | > 100 | > 100 | > 100 | > 100 |  |
| C(#C[C@@]12CCC[C@@H]1NCO2)c1ccc2c(c1)OCO2 |  | 31.5 | > 100 | 60.2 | > 100 | > 100 | > 100 | > 100 |  | > 100 | 68.2 |
| Cc1cccc2c(=O)c3cccc(CC(=O)O)c3oc12 |  | > 100 |  | > 100 | > 100 | > 100 | > 100 | > 100 | > 100 | > 100 | > 100 |
| C/C(=C/C(=O)N(C)c1ccccc1Cl)O[Si](C(C)C)(C(C)C)C(C)C | 56.6 | 32.6 | > 100 |  | 68.7 | 34.5 | 56.2 | 47 | 32.4 | 39.3 |  |
| C/C(=C\COP(=O)(O)CP(=O)(O)O)CC/C=C(\C)CNc1ccccc1 | > 100 | > 100 | > 100 | > 100 |  | > 100 | > 100 | > 100 | > 100 | > 100 | > 100 |
| Cc1nnc(NS(=O)(=O)c2ccc(N=Nc3c(O)c(C(=O)O)cc4ccccc34)cc2)s1 |  | > 100 | > 100 | > 100 | > 100 | > 100 | > 100 | > 100 | > 100 | > 100 | > 100 |
| CC(=O)OC1=C(c2ccccc2)S(=O)(=O)c2ccccc21 | > 100 | > 100 | > 100 | > 100 |  | > 100 | > 100 | > 100 |  | > 100 | > 100 |
| CC(C)CCNC(=O)c1ccc(CNC(=O)/C=C/c2ccc3c(c2)-c2ccccc2C3)cc1 | > 100 | > 100 | > 100 | > 100 | > 100 | > 100 | > 100 | 71.4 | > 100 | > 100 |  |
| COC(=O)C(Cc1ccc2c(c1)OCO2)(NC(=O)c1ccccc1)P(=O)(OC)OC (stereo unspecified) |  | > 100 |  | > 100 |  | > 100 | > 100 | > 100 | > 100 | > 100 | > 100 |
| C[N+](C)(C)CC(=O)N/N=C\c1c(O)ccc2ccccc12 |  | > 100 | > 100 | > 100 | > 100 | 85.9 | 70.5 | > 100 | > 100 | > 100 | 43.3 |
| O=C(O)CN1CCN2CCOCCN(CC1)CCN(CC(=O)O)CC2 | > 100 | > 100 | > 100 | > 100 |  | > 100 | > 100 | > 100 | > 100 | > 100 | > 100 |
